Values of other authors, collected in patent publication US7029703B2, “Composition for promoting healthy bone structure” (Metagenics, Inc., priority 1999, dated 2006).

What was measured:
[1] = in animals and in humans
osteoblast-like cells = conditions: in vitro
[2] = 600 mg ipriflavone/day along with 1 gram calcium
[3] = clinical trials; consumption data of up to 2 years
[4] = postmenopausal osteoporosis

SMILES: CC(C)Oc1ccc2c(=O)c(-c3ccccc3)coc2c1 [ipriflavone, 7-isopropoxyisoflavone]
- estrogenic activity [1]: devoid of any estrogenic activity
- alkaline phosphatase activity (osteoblast-like cells): increases
- collagen synthesis (osteoblast-like cells): increases
- Urinary hydroxyproline/creatinine (HOP/Cr) [2]: reduced
- serum osteocalcin (BGP) [2]: reduced
- increase in BMD at the distal radius (DPA) ([2]; 28 osteoporotic elderly women, P<0.05): 6%
- frequency of adverse reactions [3]: equal to that observed during administration of a placebo
- Bone pain (during the 1200/600 mg sequence of ipriflavone): significantly decreased
- Serum alkaline phosphatase (ALP) decrease (following the 1200/600 mg ipriflavone sequence, P<0.01): 33%
- hydroxy proline/creatinine (HOP/Cr) decrease (following the 1200/600 mg ipriflavone sequence, P<0.05): 24.1%

SMILES: O=C([O-])[O-].[Ca+2] [calcium carbonate]
- rate of bone loss [4]: reduced the rate of bone loss by about half
